Drawing on ChEMBL document CHEMBL1151067, “Stereoselectivity in the hydrolysis of synthetic esters by cultured cancer cells and normal tissue extracts of rat” (1994), this text covers Conversion rate for nine compounds.

The test system of experiment [1] is CCRF S-180. Nature of the experiment: Stereoselectivity in enzymic hydrolysis by mouse sarcoma S180 cells. In kind it is functional.
Another experiment concerns Anr4. Nature of the experiment: Stereoselectivity in enzymic hydrolysis by rat cancer Anr4 cells. Type of experiment: functional.
In another experiment the test system is NRK-49F. Nature of the experiment: Stereoselectivity in enzymic hydrolysis by rat cancer NRK49F cells. In kind it is functional.
The species entered for experiment [2] is Rattus norvegicus. Nature of the experiment: Stereoselectivity in enzymic hydrolysis by normal rat liver extracts. In kind it is functional.
A further experiment has as its system COLO 320. Nature of the experiment: Stereoselectivity in enzymic hydrolysis by human cancer COLO 320 (colon adenocarcinoma) cells. In kind it is functional.
For experiment [3], the species on record is Rattus norvegicus. Nature of the experiment: Stereoselectivity in enzymic hydrolysis by normal rat kidney extracts. Type of experiment: functional.
The species entered for experiment [4] is Rattus norvegicus. Nature of the experiment: Stereoselectivity in enzymic hydrolysis by normal rat pancreas extracts. In kind it is functional.
Experiment [5] is filed under the species Rattus norvegicus. Nature of the experiment: Stereoselectivity in enzymic hydrolysis by normal rat intestine extracts. In kind it is functional.
The species named for experiment [6] is Rattus norvegicus. Nature of the experiment: Stereoselectivity in enzymic hydrolysis by normal rat muscle extracts. Type of experiment: functional, Muscle tissue.
The next experiment concerns XC. Nature of the experiment: Stereoselectivity in enzymic hydrolysis by rat cancer XC cells. Type of experiment: functional.
Another experiment has as its system U-937. Nature of the experiment: Stereoselectivity in enzymic hydrolysis by human cancer U937 (histiocytic lymphoma) cells. In kind it is functional.
The test system of the next experiment is ARIP cell line. Nature of the experiment: Stereoselectivity in enzymic hydrolysis by rat cancer ARIP cells. Type of experiment: functional.
Another experiment deals with IA-XsSBR cell line. Nature of the experiment: Stereoselectivity in enzymic hydrolysis by rat cancer IA-XsSBR cells. Type of experiment: functional.
The next experiment deals with MIA PaCa-2. Nature of the experiment: Stereoselectivity in enzymic hydrolysis by human cancer MIA PaCa-2 (pancreatic carcinoma) cells. Type of experiment: functional.
Experiment [7] deals with CCRF S-180. Nature of the experiment: Stereoselectivity in enzymic hydrolysis of compound by mouse sarcoma S180 cells. In kind it is functional.

With `CCOC(=O)C(NC(C)=O)c1ccccc1` (stereo not drawn), the Conversion rate with CCRF S-180 [1] came out at 4.3%.

In the experiment with CCRF S-180 [1], `CCOC(=O)C(OC)c1ccccc1` (stereo not drawn) gave a Conversion rate of 4.3%.

With `CCOC(=O)C(NC=O)c1ccccc1` (stereo not drawn), the Conversion rate is reported as 3.6% with CCRF S-180 [1]; 1.2% in the experiment with Anr4; 2.2% in the experiment on NRK-49F; 2.7% in the experiment listed under Rattus norvegicus [2]; 3.8% in the experiment on COLO 320; 7.6% in the experiment filed under Rattus norvegicus [3]. For the same compound, the Conversion rate is 14.3% in the experiment filed under Rattus norvegicus [4]; 1.4% in the experiment filed under Rattus norvegicus [5]; 5.9% in the experiment listed under Rattus norvegicus [6]; 1.2% in the experiment on XC; 3.5% in the experiment on U-937; 1.6% with ARIP cell line. The compound also showed a Conversion rate in the experiment on IA-XsSBR cell line of 1.3%.

The compound `CCCCCCCCOC(=O)C(C)c1ccccc1` (stereo not drawn) returned a Conversion rate in the experiment with CCRF S-180 [1] of 11%.

As to `CCOC(=O)C(C)Oc1ccccc1` (stereo not drawn), the Conversion rate with CCRF S-180 [1] was found to be 38.9%; in the experiment on Anr4 it was 14.2%; in the experiment with NRK-49F, 4.5%; in the experiment filed under Rattus norvegicus [2] it was 52.5%; in the experiment listed under Rattus norvegicus [3], 53%; in the experiment filed under Rattus norvegicus [4] it was 33.3%. The Conversion rate turned out to be 5% in the experiment filed under Rattus norvegicus [5]; 18% in the experiment listed under Rattus norvegicus [6]; 23% with XC; 5.7% in the experiment with ARIP cell line; 12.2% with IA-XsSBR cell line; 35.9% in the experiment on MIA PaCa-2.

On to `CC(C(=O)OCCC1CCCCC1)c1ccccc1` (stereo not drawn), for which the Conversion rate in the experiment with CCRF S-180 [1] was 6.1%.

With `CCOC(=O)C(O)c1ccccc1` (stereo not drawn), the Conversion rate in the experiment with CCRF S-180 [1] is recorded as 21.2%.

Regarding `CCOC(=O)C(C)c1ccccc1` (stereo not drawn), the Conversion rate turned out to be 0.5% in the experiment with Anr4; 8.2% in the experiment with NRK-49F; 11.5% in the experiment listed under Rattus norvegicus [2]; 1.2% in the experiment with COLO 320; 11.2% in the experiment filed under Rattus norvegicus [3]; 1.2% in the experiment filed under Rattus norvegicus [4]. Further, the Conversion rate in the experiment filed under Rattus norvegicus [5] is 5%; in the experiment filed under Rattus norvegicus [6] it was 1%; in the experiment with XC, 0.6%; in the experiment on U-937, 1.4%; with ARIP cell line, 6.9%; in the experiment on IA-XsSBR cell line, 1.4%. Also, the Conversion rate came to 11.9% in the experiment with MIA PaCa-2 and 18.1% in the experiment on CCRF S-180 [7].

For the compound `CCOC(=O)C(Cc1ccccc1)NC(C)=O` (stereo not drawn), the Conversion rate is recorded as 12.9% in the experiment on CCRF S-180 [1]; 30.6% with Anr4; 35.1% in the experiment on NRK-49F; 48.2% in the experiment listed under Rattus norvegicus [2]; 13.8% with COLO 320; 23.2% in the experiment listed under Rattus norvegicus [3]. For the same compound, the Conversion rate is listed as 43.8% in the experiment listed under Rattus norvegicus [4]; 37.3% in the experiment listed under Rattus norvegicus [5]; 31.9% in the experiment filed under Rattus norvegicus [6]; 42% in the experiment on XC; 17.5% in the experiment with U-937; 37.2% in the experiment with ARIP cell line. Further, the Conversion rate in the experiment with IA-XsSBR cell line came to 30.5%; with MIA PaCa-2, 42%.
